Data from patent publication US8618074B2, “GPCR enhanced neuroprotection to treat brain injury” (Board of Regents of the University of Texas System, priority 2007, dated 2013).

What was measured:
astrocytes [1] = assay: Time until mitochondrial membrane potential (ΔΨ, TMRE) collapse during t-BuOOH oxidative stress; format: cell-based, mouse; conditions: for time until ΔΨ collapse: oligomycin 1 μg/ml 30 min pretreatment, t-buOOH 100 μM; for mean time until ΔΨ collapse: oligomycin pretreatment + extracellular ATP 10 minutes, then oxidative stress
Protocol: (§1) Primary cultures of astrocytes were prepared as previously published (Lin et al., 2005). C57BL/6 male mice were purchased from the National Institute of Aging and maintained in standard accredited housing conditions at the University of Texas Health Science Center Animal Facility. Animal protocols were approved by our Institutional Animal Care Use Committee. Astrocytes were cultured in DMEM F-12 media (Invitrogen, # 11039-021) supplemented with 2 mM glutamine, nonessential amino acids, 10% fetal calf serum, 100 U/ml penicillin/streptomycin (Cambrex BioScience Walkersville, #17-602E) and 1% fungizone (Invitrogen, #15290-018) at 37° C. in an atmosphere containing 5% CO2. The culture medium was changed every 3-5 days. Confluent cells were gently removed by a trypsin EDTA solution and re-plated on 35 mm glass bottom chambers (Bioptechs #04200415C) prior to imaging experiments 3-4 days later. Cells were maintained in plastic culture flasks until the final re-seeding of cells onto a glass bottom chamber and were passed up to 3 times for astrocyte only experiments. For co-culture experiments with neurons, primary astrocytes were plated directly onto corning transwell-clear permeable supports, which physically separates the two cell-types by ˜1 mm (# 07-200-170, Fisher scientific). Astrocytes were cultured in transwells until they were ˜70% confluent. Mouse cortical neurons (Cambrex Bio Science Walkersville Inc., # M-CX-300) were then cultured onto 6 well mat-tek glass bottom plates and maintained in Neurobasal Medium (Invitrogen, # 21103-049), 2 mM L-Glutamine (Cambrex BioScience Walkersville, #17-605E), 100 U/ml penicillin/streptomycin (Cambrex BioScience Walkersville, #17-602E) and B-27 with (Invitrogen, #17504-044) and without antioxidants (Invitrogen, #10889-038), which controls glia contamination to less than 0.5%. The transwell supports with cultured astrocytes were placed in the neuron seeded glass bottom chambers for four days before imaging and both cell types were then maintained in neuronal media. For neuron only experiments, the astrocytes on the transwell supports were removed prior to treatments and imaging.
Mitochondrial membrane potentials (ΔΨs) was measured as previously described using the potential sensitive dye tetra-methyl rhodamine ethyl ester (TMRE, Molecular Probes, #T-669) (Lin and Lechleiter, 2002). Images were acquired with a 60× oil 1.4 NA objective on a Nikon PCM2000 confocal microscope custom adapted for two-photon imaging. A Ti-sapphire Coherent Mira 900 Laser pumped with a 5W Verdi laser (Coherent Inc., Santa Clara, Calif.) was used to excite TMRE at 800 nm A neutral-density filter wheel was used to attenuate the laser intensity so that no detectable photobleaching of TMRE was observed.
To investigate this, primary cultures of astrocytes were prepared from the brains of young (4-6 months) and old (26-28 months) mice and re-plated on glass coverslips prior to each imaging experiment as previously described. Seeded glass coverslips were then sealed in an open chamber (Bioptechs Delta T) and perfused at 37° C. with the potential sensitive dye tetramethyl rhodamine ethyl ester (TMRE, 200 nM, Molecular Probes/Invitrogen) to label astrocyte mitochondria. Mitochondrial membrane potentials (ΔΨs) were measured every 5 minutes using two-photon microscopy. Each image is a maximum intensity projection of a z-stack of six optical sections (1-μm steps). Scale bar is 10 μm. Plated cells were continuously perfused at 37° C. with culture medium containing TMRE (200 nM) and imaged with 2-photon microscopy (800 nm). Oxidative stress was applied to the cells in the perfusate with t-BuOOH (100 μM). Cell viability was then monitored by the collapse of ΔΨ (TMRE fluorescence) to 10% of its initial value. The time course of ΔΨ collapse is plotted for 3 astrocytes (A1, A2, A3) in each culture (FIGS. 1B and 2B). Fluorescent units are scaled to 100% at 0 hours. […]

[2] = test system: Neurons in the absence of astrocytes; assay: Neuronal survival under t-buOOH in the absence of astrocytes (transwells removed before ligand treatment); format: cell-based, mouse
Protocol: as §1
Sensitivity of neurons to oxidative stress was assessed by treating cultures with 100 μM tert-butyl hydrogen peroxide (t-BuOOH, Sigma, #B-2633) for 3 hours. Neurons were then stained with Hoechst 33342 (10 μg/ml, Molecular Probes, #H-3570) to label all cell nuclei and calcein AM (2 μM, #C3100, Molecular Probes, #C3100). […] Calcein fluorescence is only observed in live cells that have maintained their plasma membrane integrity. Images were acquired on an inverted Nikon TE300 microscope with a Hamamatsu ORCAER camera and Open lab software (Improvision).
Activation of neuronal P2X receptors has been reported neurotoxic. Consequently, we further examined the affects of P2Y-R activation on neuronal survival in the absence of astrocytes. Neurons were co-cultured with astrocytes in transwell dishes that were removed from the cultures just prior to treating the neurons with purinergic ligands. Neurons in the absence of astrocytes were then exposed to t-buOOH (100 μM, 4.5 hours with normal B-27, 3 hours with antioxidant-free B-27) and cell viability was assessed by the ability of neurons to retain calcien. […] The same results were found for neurons initially co-cultured with old astrocytes. […]

astrocytes [3] = assay: MCB (reduced GSH) fluorescence of cortical astrocytes after RB-induced clot/ischemia; format: in vivo, mouse; conditions: 340 minutes after the initial clot; tail vein injection with RB
Protocol: In another series of experiments, a transgenic mouse expressing green fluorescent protein (GFP) in astrocytes was prepared for imaging. In this mouse, the cortical cells were labeled with monochlorobimane (MCB), a fluorescent indicator of reduced GSH. After obtaining an image of astrocytes (GFP) and MCB fluorescence, the mouse was tail vein injected with Rose Bengal (RB), FITC-dextran and the P2Y-R agonist 2-MeSADP. A clot was induced with 543 nm irradiation in a region of the brain. Breakdown of the blood brain barrier in the region near this clot permitted secretion of 2-MeSADP in the nearby astrocytes. MCB fluorescence was maintained for over an hour in all of the cells in the field of view. […] The persistence of GSH in this area indicates an enhanced region of protection against oxidative stress caused by ischemia. Lineplots of MCB fluorescence of the astrocytes is depicted in FIG. 7. Cells a1-a3 are within the protected zone and cells a4-a6 are outside this area.

[4] = neurons initially co-cultured with old astrocytes, astrocytes removed, t-buOOH 100 μM
[5] = neurons without astrocytes, normal B-27, t-buOOH 100 μM 4.5 hours

## Nc1ncnc2c1ncn2[C@@H]1O[C@H](COP(=O)(O)OP(=O)(O)OP(=O)(O)O)[C@@H](O)[C@H]1O [ATP]
Astrocytes [1]; old astrocytes, ATP 10 μM 10 min prior to t-BuOOH 100 μM
  average time until ΔΨ collapse: 6.65 ± 0.24 h
Astrocytes [1]; young astrocytes, ATP 10 μM 10 min prior to t-BuOOH 100 μM
  average time for ΔΨ to collapse: 7.35 ± 0.23 h
[2]; [4]
  % neurons alive: 49±6%
[2]; neurons without astrocytes, anti-oxidant-free B-27, t-buOOH 100 μM 3 hours
  % neurons alive: 18±2%
[2]; [5]
  % neurons alive: 56±7%

## CC[C@H]1/C=C/C=C/C[C@@H](C)[C@H](O)[C@@](C)(O)C(=O)[C@@H](C)[C@H](O)[C@@H](C)C(=O)[C@@H](C)[C@H](O)[C@@H](C)/C=C/C(=O)O[C@@H]2[C@H](C)[C@H](CC1)O[C@]1(CC[C@H](C)[C@H](C[C@@H](C)O)O1)[C@H]2C [oligomycin]
Astrocytes [1]; old astrocytes
  time until ΔΨ collapse: 4.16 ± 0.14 h
  mean time until ΔΨ collapse: 3.21±0.08
Astrocytes [1]; young astrocytes
  time until ΔΨ collapse: 5.15 ± 0.08 h
  mean time until ΔΨ collapse: 4.69±0.23

## CSc1nc(N)c2ncn([C@@H]3O[C@H](COP(=O)(O)OP(=O)(O)O)[C@@H](O)[C@H]3O)c2n1 [2-MeSADP]
[2]; [4]
  % neurons alive: 72±3%
[2]; [5]
  % neurons alive: 74±3%
Astrocytes [3]
  MCB fluorescence (GSH) of astrocytes near the initial clot zone: essentially maintained
